{"source": "patent US20250304550A1", "about": "“BROMODOMAIN AND EXTRA-TERMINAL (BET) SUBFAMILY BROMODOMAIN 1 (BD1) SELECTIVE INHIBITORS AND METHODS USING SAME” (Baylor College of Medicine, priority 2022, published 2025)", "key": {"NanoLuc-BET BD1": {"system": "NanoLuc-BET BD1", "assay": "NanoBRET target engagement intracellular BET bromodomain assay in HEK293 cells", "format": "cell-based, human", "settings": "transiently transfected HEK293 cells"}, "[1]": {"system": "MV4; 11 and MOLM-13 cells", "assay": "Apoptosis detection (Annexin V) by flow cytometry", "format": "cell-based", "settings": "72 hours of treatment"}, "BRDT-BD1 [2]": {"target": "T1, BRDT-BD1 (Homo sapiens (Human), UniProt Q58F21)", "assay": "AlphaScreen bromodomain proximity assay (biotinylated JQ1 competition)", "format": "binding", "settings": "for BRDT-BD1 vs. BRDT-BD2 fold: BD1 selectivity, AlphaScreen IC50 ratio"}, "BRD4-BD1 [3]": {"target": "T2, BRD4-BD1 (Homo sapiens (Human), UniProt O60885)", "assay": "BromoKdELECT assay", "format": "binding"}, "BRDT-BD1 [4]": {"target": "T1, BRDT-BD1", "assay": "BromoKdELECT assay", "format": "binding"}, "BRD3-BD1": {"target": "BRD3-BD1 (Homo sapiens (Human), UniProt Q15059)", "sequence (Q15059 34-140)": "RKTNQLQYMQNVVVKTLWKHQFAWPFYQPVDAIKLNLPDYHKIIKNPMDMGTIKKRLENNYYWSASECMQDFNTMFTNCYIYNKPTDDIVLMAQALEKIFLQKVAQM", "assay": "BromoKdELECT assay", "format": "binding"}, "NanoLuc-BRD4-BD2": {"target": "NanoLuc-BRD4-BD2 (Homo sapiens (Human), UniProt O60885)", "assay": "NanoBRET target engagement intracellular BET bromodomain assay in HEK293 cells", "format": "cell-based", "settings": "transiently transfected HEK293 cells"}, "NanoLuc-BRDT-BD2": {"target": "NanoLuc-BRDT-BD2 (Homo sapiens (Human), UniProt Q58F21)", "assay": "NanoBRET target engagement intracellular BET bromodomain assay in HEK293 cells", "format": "cell-based", "settings": "transiently transfected HEK293 cells"}, "[5]": {"assay": "Metabolic stability assay in human liver microsomes", "format": "in vitro ADME", "settings": "human, microsomes"}, "[6]": {"system": "MYC and GAPDH expression in MV4; 11 and MOLM-13 cells", "assay": "Quantitative RT-PCR analysis of MYC and GAPDH expression", "format": "cell-based", "settings": "8 hours of treatment, both cell lines"}, "[7]": {"assay": "Metabolic stability assay in mouse liver microsomes", "format": "in vitro ADME", "settings": "mouse, microsomes"}, "[8]": {"system": "MV4; 11 and MOLM-13 cells", "assay": "Cell cycle analysis by flow cytometry", "format": "cell-based", "settings": "24 hours of treatment at the IC50"}, "BRD2-BD1": {"target": "BRD2-BD1 (Homo sapiens (Human), UniProt P25440)", "sequence (P25440 74-180)": "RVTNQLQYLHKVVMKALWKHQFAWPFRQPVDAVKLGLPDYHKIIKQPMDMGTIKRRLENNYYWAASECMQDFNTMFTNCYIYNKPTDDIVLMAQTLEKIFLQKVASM", "assay": "BromoKdELECT assay", "format": "binding"}, "[9]": {"system": "BRD4-dependent AML cell lines", "assay": "Cell viability testing (CellTiterGlo, 72 hours) in AML cell lines", "format": "cell-based"}, "BRD4-BD1 [10]": {"target": "T2, BRD4-BD1", "assay": "AlphaScreen bromodomain proximity assay (biotinylated JQ1 competition)", "format": "binding"}, "AML cell line MV4; 11": {"system": "AML cell line MV4; 11", "assay": "Cell viability testing (CellTiterGlo, 72 hours)", "format": "cell-based", "settings": "Homo sapiens, '—' = not efficient"}, "BRD4-BD2": {"target": "BRD4-BD2 (Homo sapiens (Human), UniProt O60885)", "assay": "AlphaScreen bromodomain proximity assay (biotinylated JQ1 competition)", "format": "binding", "settings": "in Table 4 '—' = not efficient"}, "BRDT-BD2": {"target": "BRDT-BD2 (Homo sapiens (Human), UniProt Q58F21)", "assay": "AlphaScreen bromodomain proximity assay (biotinylated JQ1 competition)", "format": "binding", "settings": "in Table 4 '—' = not efficient"}, "BD2": {"system": "BD2", "settings": "background statement; cited from earlier work"}}}
{"smiles": "CNC(=O)[C@@H](CC1CCN(C(=O)Cc2ccc3[nH]c(=O)cc(C)c3c2)CC1)NC(=O)c1ccc(-c2ccc(C)cc2C)cn1", "note": "[Compound 2, (R)-5-(2,4-dimethylphenyl)-N-(3-(1-(2-(4-methyl-2-oxo-1,2-dihydroquinolin-6-yl)acetyl)piperidin-4-yl)-1-(methylamino)-1-oxopropan-2-yl)picolinamide]", "values": [{"measurement": "inhibition of tracer binding, BD1 vs BD2 (in words)", "setting": "NanoLuc-BET BD1", "value": "more potent and selective for NanoLuc-BET BD1"}, {"measurement": "apoptosis, Annexin V+ cells (in words)", "setting": "[1]", "value": "induced"}, {"measurement": "IC50", "setting": "BRDT-BD1 [2]; AlphaScreen", "value": 2.1, "unit": "nM"}, {"measurement": "fold more potent than (+)-JQ1 for BRDT-BD1", "setting": "BRDT-BD1 [2]; AlphaScreen", "value": 22, "unit": "fold"}, {"measurement": "BRDT-BD1 vs. BRDT-BD2 fold", "setting": "BRDT-BD1 [2]", "value": "~5000", "unit": "fold"}, {"measurement": "IC50", "setting": "BRD4-BD1 [3]", "value": 0.29, "unit": "nM"}, {"measurement": "IC50", "setting": "BRDT-BD1 [4]", "value": 0.22, "unit": "nM"}, {"measurement": "IC50", "setting": "BRD3-BD1", "value": 0.13, "unit": "nM"}, {"measurement": "BRD3-BD1 selectivity over BRD3-BD2", "setting": "BRD3-BD1; BromoKdELECT", "value": 5920, "unit": "fold"}, {"measurement": "effect against BRD4-BD2 in NanoBRET (in words)", "setting": "NanoLuc-BRD4-BD2", "value": "no effect"}, {"measurement": "effect against BRDT-BD2 in NanoBRET (in words)", "setting": "NanoLuc-BRDT-BD2", "value": "no effect"}, {"measurement": "half-life at 2 μM", "setting": "[5]", "value": 33, "unit": "min"}, {"measurement": "MYC expression (in words)", "setting": "[6]", "value": "suppressed"}, {"measurement": "effects on GAPDH expression (in words)", "setting": "[6]", "value": "no/minimal effects"}, {"measurement": "metabolic stability in mouse liver microsomes (in words)", "setting": "[7]", "value": "labile"}, {"measurement": "effect on the cell cycle (in words)", "setting": "[8]", "value": "induced Gi arrest"}, {"measurement": "BRD2-BD1 selectivity over BRD2-BD2", "setting": "BRD2-BD1; BromoKdELECT", "value": 420, "unit": "fold"}, {"measurement": "IC50", "setting": "BRD2-BD1; printed as BRD2-BDT1", "value": 0.26, "unit": "nM"}]}
{"smiles": "CNC(=O)[C@H](CC1CCN(C(=O)Cc2ccc3[nH]c(=O)cc(C)c3c2)CC1)NC(=O)c1ccc(-c2ccc(C)cc2C)cn1", "note": "[Compound 3, (S)-5-(2,4-dimethylphenyl)-N-(3-(1-(2-(4-methyl-2-oxo-1,2-dihydroquinolin-6-yl)acetyl)piperidin-4-yl)-1-(methylamino)-1-oxopropan-2-yl)picolinamide]", "values": [{"measurement": "cellular potency in AML cell lines (in words)", "setting": "[9]", "value": "minimal effect"}, {"measurement": "IC50", "setting": "BRDT-BD1 [2]; AlphaScreen", "value": 96.6, "unit": "nM"}, {"measurement": "BRDT-BD1 vs. BRDT-BD2 fold", "setting": "BRDT-BD1 [2]", "value": 65, "unit": "fold"}, {"measurement": "fold greater affinity for BRD4-BD1 than BRDT-BD1", "setting": "BRD4-BD1 [10]; AlphaScreen", "value": 4, "unit": "fold"}]}
{"smiles": "CNC(=O)[C@H](CC1CCN(C(=O)Cc2ccc3[nH]c(=O)cc(C)c3c2)CC1)NC(=O)c1ccc(-c2ccccc2)cn1", "note": "[Compound 5, (S)-N-(3-(1-(2-(4-methyl-2-oxo-1,2-dihydroquinolin-6-yl)acetyl)piperidin-4-yl)-1-(methylamino)-1-oxopropan-2-yl)-5-phenylpicolinamide]", "values": [{"measurement": "cellular potency in AML cell lines (in words)", "setting": "[9]", "value": "minimal activity"}]}
{"smiles": "CNC(=O)[C@@H](CC1CCN(C(=O)Cc2ccc3[nH]c(=O)ccc3c2)CC1)NC(=O)c1ccc(-c2ccccc2)cn1", "note": "[Compound 10, (R)-N-(1-(methylamino)-1-oxo-3-(1-(2-(2-oxo-1,2-dihydroquinolin-6-yl)acetyl)piperidin-4-yl)propan-2-yl)-5-phenylpicolinamide]", "values": [{"measurement": "EC50", "setting": "AML cell line MV4; 11", "value": 143, "unit": "nM"}, {"measurement": "IC50", "setting": "BRDT-BD1 [2]; AlphaScreen", "value": 5.4, "unit": "nM"}, {"measurement": "BRDT-BD1 vs. BRDT-BD2 fold", "setting": "BRDT-BD1 [2]", "value": "3,875 fold"}, {"measurement": "IC50", "setting": "BRD4-BD1 [10]; AlphaScreen", "value": 7.1, "unit": "nM"}, {"measurement": "fold loss of selectivity over BRD4-BD2", "setting": "BRD4-BD1 [10]; AlphaScreen", "value": 1.6, "unit": "fold"}, {"measurement": "BRD4-BD1 vs. BRD4-BD2 fold", "setting": "BRD4-BD1 [10]; BD1 selectivity, AlphaScreen IC50 ratio", "value": "2,352 fold"}, {"measurement": "IC50", "setting": "BRD4-BD2", "value": 16.7, "unit": "µM"}, {"measurement": "IC50", "setting": "BRDT-BD2", "value": 20.9, "unit": "µM"}]}
{"smiles": "Cc1sc2c(c1C)C(c1ccc(Cl)cc1)=N[C@@H](CC(=O)OC(C)(C)C)c1nnc(C)n1-2", "note": "[JQ1, tert-butyl (S)-2-(4-(4-chlorophenyl)-2,3,9-trimethyl-6H-thieno[3,2-f][1,2,4]triazolo[4,3-a][1,4]diazepin-6-yl)acetate, reference compound]", "values": [{"measurement": "inhibition of tracer binding, BD1 vs BD2 (in words)", "setting": "NanoLuc-BET BD1", "value": "binds both BD1 and BD2 equally"}, {"measurement": "half-life in human liver microsomes (in words)", "setting": "[5]", "value": "quite low"}, {"measurement": "metabolic stability in mouse liver microsomes (in words)", "setting": "[7]", "value": "labile"}]}
{"smiles": "COc1cc(OC)c2c(=O)[nH]c(-c3cc(C)c(OCCO)c(C)c3)nc2c1", "note": "[RVX-208]", "values": [{"measurement": "BD2 potency", "setting": "BD2", "value": "> 100", "unit": "nM"}, {"measurement": "selectivity over BD1 domains", "setting": "BD2", "value": "~10", "unit": "fold"}]}
